Reference: PMC2785482, “Combined Bezafibrate and Medroxyprogesterone Acetate: Potential Novel Therapy for Acute Myeloid Leukaemia” (PLoS ONE, 2009)

Target: T1, AKR1C3 (Homo sapiens, UniProt P42330)
T1 construct: Recombinant N-terminal His-tagged AKR1C3
Experiment: recombinant AKR1C3 phenanthrenequinone reduction, NADPH absorbance at […] nm
Format: biochemical

T1 sequence (P42330 whole entry): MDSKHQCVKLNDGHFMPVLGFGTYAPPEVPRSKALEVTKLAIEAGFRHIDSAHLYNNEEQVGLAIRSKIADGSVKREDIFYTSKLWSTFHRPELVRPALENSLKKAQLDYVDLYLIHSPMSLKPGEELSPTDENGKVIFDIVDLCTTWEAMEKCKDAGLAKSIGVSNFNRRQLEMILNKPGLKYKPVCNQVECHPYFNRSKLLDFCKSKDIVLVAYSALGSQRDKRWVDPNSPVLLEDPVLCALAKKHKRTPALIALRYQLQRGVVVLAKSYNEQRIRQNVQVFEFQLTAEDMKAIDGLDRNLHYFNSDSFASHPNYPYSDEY

Structure (SMILES): CC(=O)O[C@]1(C(C)=O)CC[C@H]2[C@@H]3C[C@H](C)C4=CC(=O)CC[C@]4(C)[C@H]3CC[C@@]21C [MPA, medroxyprogesterone acetate]
- IC50: 1100 nM
